Measurements as given in patent publication EP0381913A1, “Benzohydroxamic-acid derivatives” (SANDOZ AG, priority 1988, dated 1990).

Test system: weeds
Experiment: greenhouse tests after either or both pre- and post-emergence application
Format: in vivo
Details: application rate corresponding to 0.25 kg/ha
Experimental: In pre-emergence testing, small plastic greenhouse pots filled with dry soil are seeded with the various weed seeds. Twenty-four hours or less after the seeding, the pots are sprayed with water until the soil is wet and the test compounds formulated as aqueous emulsions of acetone solutions containing emulsifiers are sprayed at the indicated concentrations emulsifiers are sprayed on the surface of the soil. After spraying, the soil containers are placed in the greenhouse and provided with supplementary heat as required and daily or more frequent watering. The plants are maintained under these conditions for a period of from 14 to 21 days, at which time the conditions of the plants and the degree of injury to the plants is rated.
After spraying, the plants are placed in a greenhouse and watered daily or more frequently. Water is not applied to the foliage of the treated plants. The severity of the injury is determined 21 days after treatment and is rated.

Compound: COC(=O)CON(C(C)=O)C(=O)c1c(Cl)ccc(Cl)c1OC [Compound 1.12, Methyl N-acetyl-N-(3,6-dichloro-2methoxy)benzoylaminooxyacetate]
- control of weeds: substantial control of weeds
